Data as given in PubChem BioAssay (NCI).
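Compound exposure: 48 hours, 5 concentrations, 96-well plates. GI50 = concentration required for 50% inhibition of growth. TGI: total growth inhibition.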

Columns and labels:
Experiment in all cases: inhibition of tumour cell growth, NCI panel, 48 h
RPMI-8226 leukemia = system: RPMI-8226 leukemia
EKVX NSCLC = system: EKVX NSCLC
NCI-H522 lung = system: NCI-H522 lung
KM12 colon = system: KM12 colon
HCT-116 colon = system: HCT-116 colon
BT-549 breast = system: BT-549 breast
SK-MEL-2 melanoma = system: SK-MEL-2 melanoma
SK-MEL-28 melanoma = system: SK-MEL-28 melanoma
OVCAR-8 ovarian = system: OVCAR-8 ovarian
K-562 leukemia = system: K-562 leukemia
HS 578T breast = system: HS 578T breast
OVCAR-3 ovarian = system: OVCAR-3 ovarian
PC-3 prostate = system: PC-3 prostate
SNB-75 CNS = system: SNB-75 CNS
T-47D breast = system: T-47D breast
SR leukemia = system: SR leukemia
SNB-19 CNS = system: SNB-19 CNS
A498 renal = system: A498 renal
RXF 393 renal = system: RXF 393 renal
SN12C renal = system: SN12C renal
HOP-92 NSCLC = system: HOP-92 NSCLC
SF-539 CNS = system: SF-539 CNS
NCI-H460 lung = system: NCI-H460 lung
SK-OV-3 ovarian = system: SK-OV-3 ovarian
SF-295 CNS = system: SF-295 CNS
UACC-257 melanoma = system: UACC-257 melanoma
HOP-62 NSCLC = system: HOP-62 NSCLC
HL-60(TB) leukemia = system: HL-60(TB) leukemia
SK-MEL-5 melanoma = system: SK-MEL-5 melanoma
MOLT-4 leukemia = system: MOLT-4 leukemia
SW-620 colon = system: SW-620 colon
HCC-2998 colon = system: HCC-2998 colon
OVCAR-4 ovarian = system: OVCAR-4 ovarian
MALME-3M melanoma = system: MALME-3M melanoma
LOX IMVI melanoma = system: LOX IMVI melanoma
UO-31 renal = system: UO-31 renal
NCI/ADR-RES ovarian = system: NCI/ADR-RES ovarian
COLO 205 colon = system: COLO 205 colon
786-0 renal = system: 786-0 renal
HCT-15 colon = system: HCT-15 colon
U251 CNS = system: U251 CNS
MDA-MB-435 = system: MDA-MB-435
HT29 colon = system: HT29 colon
CCRF-CEM leukemia = system: CCRF-CEM leukemia
SF-268 CNS = system: SF-268 CNS
IGROV1 ovarian = system: IGROV1 ovarian
MDA-MB-231 breast = system: MDA-MB-231 breast
TK-10 renal = system: TK-10 renal
UACC-62 melanoma = system: UACC-62 melanoma
MCF7 breast = system: MCF7 breast
ACHN renal = system: ACHN renal
A549 NSCLC = system: A549 NSCLC
NCI-H23 lung = system: NCI-H23 lung
M14 melanoma = system: M14 melanoma
OVCAR-5 ovarian = system: OVCAR-5 ovarian

C[C@@H]1CCC/C=C/[C@H]2C[C@@H](O)C[C@@H]2[C@@H](O)/C=C/C(=O)O1
GI50 (RPMI-8226 leukemia): 0.104 µM
TGI (RPMI-8226 leukemia): 0.553 µM
GI50 (EKVX NSCLC): 0.108 µM
TGI (EKVX NSCLC): > 33.3 µM
GI50 (NCI-H522 lung): 0.0756 µM
TGI (NCI-H522 lung): 0.225 µM
GI50 (KM12 colon): 0.0845 µM
TGI (KM12 colon): 3.42 µM
GI50 (HCT-116 colon): 0.0995 µM
TGI (HCT-116 colon): > 33.3 µM
GI50 (BT-549 breast): 0.14 µM
TGI (BT-549 breast): > 33.3 µM
GI50 (SK-MEL-2 melanoma): 0.092 µM
TGI (SK-MEL-2 melanoma): 0.236 µM
GI50 (SK-MEL-28 melanoma): 0.04 µM
TGI (SK-MEL-28 melanoma): 12 µM
GI50 (OVCAR-8 ovarian): 0.0914 µM
TGI (OVCAR-8 ovarian): > 33.3 µM
GI50 (K-562 leukemia): 0.141 µM
TGI (K-562 leukemia): > 33.3 µM
GI50 (HS 578T breast): 0.0211 µM
TGI (HS 578T breast): > 33.3 µM
GI50 (OVCAR-3 ovarian): 0.111 µM
TGI (OVCAR-3 ovarian): 0.401 µM
GI50 (PC-3 prostate): 0.125 µM
TGI (PC-3 prostate): > 33.3 µM
GI50 (SNB-75 CNS): 0.023 µM
TGI (SNB-75 CNS): > 33.3 µM
GI50 (T-47D breast): 0.109 µM
TGI (T-47D breast): 1.36 µM
GI50 (SR leukemia): 0.111 µM
TGI (SR leukemia): > 33.3 µM
GI50 (SNB-19 CNS): 0.167 µM
TGI (SNB-19 CNS): > 33.3 µM
GI50 (A498 renal): 0.0595 µM
TGI (A498 renal): 0.166 µM
GI50 (RXF 393 renal): 0.0498 µM
TGI (RXF 393 renal): 0.258 µM
GI50 (SN12C renal): 0.114 µM
TGI (SN12C renal): > 33.3 µM
GI50 (HOP-92 NSCLC): 0.0892 µM
TGI (HOP-92 NSCLC): 1.28 µM
GI50 (SF-539 CNS): 0.149 µM
TGI (SF-539 CNS): > 33.3 µM
GI50 (NCI-H460 lung): 0.115 µM
TGI (NCI-H460 lung): > 33.3 µM
GI50 (SK-OV-3 ovarian): 0.144 µM
TGI (SK-OV-3 ovarian): > 33.3 µM
GI50 (SF-295 CNS): 0.14 µM
TGI (SF-295 CNS): > 33.3 µM
GI50 (UACC-257 melanoma): 0.11 µM
TGI (UACC-257 melanoma): > 33.3 µM
GI50 (HOP-62 NSCLC): 0.145 µM
TGI (HOP-62 NSCLC): > 33.3 µM
GI50 (HL-60(TB) leukemia): 0.0973 µM
TGI (HL-60(TB) leukemia): 0.374 µM
GI50 (SK-MEL-5 melanoma): 0.0547 µM
TGI (SK-MEL-5 melanoma): 0.109 µM
GI50 (MOLT-4 leukemia): 0.146 µM
TGI (MOLT-4 leukemia): > 33.3 µM
GI50 (SW-620 colon): 0.101 µM
TGI (SW-620 colon): 0.327 µM
GI50 (HCC-2998 colon): 0.139 µM
TGI (HCC-2998 colon): > 33.3 µM
GI50 (OVCAR-4 ovarian): 0.109 µM
TGI (OVCAR-4 ovarian): > 33.3 µM
GI50 (MALME-3M melanoma): 0.0868 µM
TGI (MALME-3M melanoma): 1.17 µM
GI50 (LOX IMVI melanoma): 0.0677 µM
TGI (LOX IMVI melanoma): 0.155 µM
GI50 (UO-31 renal): 0.116 µM
TGI (UO-31 renal): > 33.3 µM
GI50 (NCI/ADR-RES ovarian): 0.104 µM
TGI (NCI/ADR-RES ovarian): > 33.3 µM
GI50 (COLO 205 colon): 0.063 µM
TGI (COLO 205 colon): 0.131 µM
GI50 (786-0 renal): 0.0951 µM
TGI (786-0 renal): > 33.3 µM
GI50 (HCT-15 colon): 0.112 µM
TGI (HCT-15 colon): > 33.3 µM
GI50 (U251 CNS): 0.137 µM
TGI (U251 CNS): > 33.3 µM
GI50 (MDA-MB-435): 0.136 µM
TGI (MDA-MB-435): > 33.3 µM
GI50 (HT29 colon): 0.0961 µM
TGI (HT29 colon): 0.316 µM
GI50 (CCRF-CEM leukemia): 0.13 µM
TGI (CCRF-CEM leukemia): > 33.3 µM
GI50 (SF-268 CNS): 0.102 µM
TGI (SF-268 CNS): > 33.3 µM
GI50 (IGROV1 ovarian): 0.145 µM
TGI (IGROV1 ovarian): > 33.3 µM
GI50 (MDA-MB-231 breast): 0.0697 µM
TGI (MDA-MB-231 breast): 0.171 µM
GI50 (TK-10 renal): 0.114 µM
TGI (TK-10 renal): 0.961 µM
GI50 (UACC-62 melanoma): 0.138 µM
TGI (UACC-62 melanoma): > 33.3 µM
GI50 (MCF7 breast): 0.0966 µM
TGI (MCF7 breast): > 33.3 µM
GI50 (ACHN renal): 0.113 µM
TGI (ACHN renal): 5.16 µM
GI50 (A549 NSCLC): 0.127 µM
TGI (A549 NSCLC): > 33.3 µM
GI50 (NCI-H23 lung): 0.129 µM
TGI (NCI-H23 lung): > 33.3 µM
GI50 (M14 melanoma): 0.0932 µM
TGI (M14 melanoma): > 33.3 µM
GI50 (OVCAR-5 ovarian): 0.136 µM
TGI (OVCAR-5 ovarian): > 33.3 µM
